Test results as given in US20260130933A1, “PHARMACEUTICAL COMPOSITION FOR PREVENTION OR TREATMENT OF NEPHROPATHY AND/OR DIABETES MELLITUS, COMPRISING ENAVOGLIFLOZIN” (DAEWOONG PHARMACEUTICAL CO., LTD., priority 2022, published 2026).

Experiment: Example 1: phase 3 trial, enavogliflozin 0.3 mg once a day as monotherapy vs placebo for 24 weeks in patients with type 2 diabetes (HbA1c, FPG, C-peptide, body weight, lipids, blood pressure, HOMA, UACR, UGCR, adiponectin, leptin, safety)
Assay type: in vivo, human
Settings: for Adiponectin, Mean (SD) / Adiponectin, Median / HOMA-IR, Mean (SD) / HOMA-IR, Median / HOMA-β, Mean (SD) / HOMA-β, Median / Leptin, Mean (SD) / Leptin, Median / UACR, Mean (SD) / UACR, Median / UGCR, Mean (SD) / UGCR, Median / Change from baseline in HOMA-IR, ANCOVA LS mean (SE) / Change from baseline in HOMA-IR, Mean (SD) / Change from baseline in HOMA-IR, Median / Change from baseline in HOMA-β, ANCOVA LS mean (SE) / Change from baseline in HOMA-β, Mean (SD) / Change from baseline in HOMA-β, Median / Change from baseline in UACR, ANCOVA LS mean (SE) / Change from baseline in UACR, Mean (SD) / Change from baseline in UACR, Median / Change from baseline in UGCR, ANCOVA LS mean (SE) / Change from baseline in UGCR, Mean (SD) / Change from baseline in UGCR, Median / Change from baseline in adiponectin, ANCOVA LS mean (SE) / Change from baseline in adiponectin, Mean (SD) / Change from baseline in adiponectin, Median / Change from baseline in leptin, ANCOVA LS mean (SE) / Change from baseline in leptin, Mean (SD) / Change from baseline in leptin, Median / Change from baseline in HOMA-IR, ANCOVA LS mean difference / Change from baseline in HOMA-β, ANCOVA LS mean difference / Change from baseline in UACR, ANCOVA LS mean difference / Change from baseline in UGCR, ANCOVA LS mean difference / Change from baseline in adiponectin, ANCOVA LS mean difference / Change from baseline in leptin, ANCOVA LS mean difference: LOCF, full analysis set; for Adiponectin, Mean (SD) / Adiponectin, Median / HOMA-IR, Mean (SD) / HOMA-IR, Median / HOMA-β, Mean (SD) / HOMA-β, Median / Leptin, Mean (SD) / Leptin, Median / UACR, Mean (SD) / UACR, Median / UGCR, Mean (SD) / UGCR, Median / Change from baseline in HOMA-IR, ANCOVA LS mean (SE) / Change from baseline in HOMA-IR, Mean (SD) / Change from baseline in HOMA-IR, Median / Change from baseline in HOMA-β, ANCOVA LS mean (SE) / Change from baseline in HOMA-β, Mean (SD) / Change from baseline in HOMA-β, Median / Change from baseline in UACR, ANCOVA LS mean (SE) / Change from baseline in UACR, Mean (SD) / Change from baseline in UACR, Median / Change from baseline in UGCR, ANCOVA LS mean (SE) / Change from baseline in UGCR, Mean (SD) / Change from baseline in UGCR, Median / Change from baseline in adiponectin, ANCOVA LS mean (SE) / Change from baseline in adiponectin, Mean (SD) / Change from baseline in adiponectin, Median / Change from baseline in leptin, ANCOVA LS mean (SE) / Change from baseline in leptin, Mean (SD) / Change from baseline in leptin, Median: 0.3 mg; for Change from baseline in HOMA-IR, ANCOVA LS mean difference / Change from baseline in HOMA-β, ANCOVA LS mean difference / Change from baseline in UACR, ANCOVA LS mean difference / Change from baseline in UGCR, ANCOVA LS mean difference / Change from baseline in adiponectin, ANCOVA LS mean difference / Change from baseline in leptin, ANCOVA LS mean difference: 0.3 mg vs placebo
Description: When a subject voluntarily gave written consent to participate in this clinical trial, a screening test was conducted. […] However, when the administration of a hypoglycemic agent was interrupted before the clinical trial Visit 1 (screening), at least an 8-week washout period, including the discontinuation period, was required, and during this period, a stable diet and exercise program was followed. Naïve patients were screened without a separate washout period, and the criteria for naïve patients were defined as patients who had not been administered hypoglycemic agents within 24 weeks prior to the date of obtaining written consent. […] In addition, they were instructed to maintain regular exercise and dietary control starting from 8 weeks prior to screening without changing their daily life patterns during the clinical trial period.

OC[C@H]1O[C@@H](c2cc(Cc3ccc(C4CC4)cc3)c(Cl)c3c2CCO3)[C@H](O)[C@@H](O)[C@@H]1O [Enavogliflozin, (2S,3R,4R,5S,6R)-2-(7-chloro-6 (4-cyclopropylbenzyl)-2,3-dihydrobenzofuran-4-yl)-6-(hydroxymethyl)tetrahydro-2H-pyran-3,4,5-triol]
Occurrence rates of adverse events or adverse drug reactions compared to the control (24 weeks, vs placebo): no statistically significant differences | Adiponectin, Mean (SD) (Baseline): 7.79 µg/mL | Adiponectin, Median (Baseline): 6.22 µg/mL | HOMA-IR, Mean (SD) (Baseline): 3.47 | HOMA-IR, Median (Baseline): 2.67 | HOMA-β, Mean (SD) (Baseline): 46.40 | HOMA-β, Median (Baseline): 36.25 | Leptin, Mean (SD) (Baseline): 11.16 ng/mL | Leptin, Median (Baseline): 6.94 ng/mL | UACR, Mean (SD) (Baseline): 28.20 g/kg | UACR, Median (Baseline): 10.50 g/kg | UGCR, Mean (SD) (Baseline): 1.42 mg/mg | UGCR, Median (Baseline): 10.11 mg/mg | Adiponectin, Mean (SD) (Week 6): 7.91 µg/mL | Adiponectin, Median (Week 6): 6.67 µg/mL | Change from baseline in HOMA-IR, ANCOVA LS mean (SE) (Week 6): −1.75 | Change from baseline in HOMA-IR, Mean (SD) (Week 6): −1.53 | Change from baseline in HOMA-IR, Median (Week 6): −0.96 | Change from baseline in HOMA-β, ANCOVA LS mean (SE) (Week 6): 3.20 | Change from baseline in HOMA-β, Mean (SD) (Week 6): 3.95 | Change from baseline in HOMA-β, Median (Week 6): 3.10 | Change from baseline in UACR, ANCOVA LS mean (SE) (Week 6): 1.45 g/kg | Change from baseline in UACR, Mean (SD) (Week 6): 3.66 g/kg | Change from baseline in UACR, Median (Week 6): 0.80 g/kg | Change from baseline in UGCR, ANCOVA LS mean (SE) (Week 6): 55.38 mg/mg | Change from baseline in UGCR, Mean (SD) (Week 6): 53.23 mg/mg | Change from baseline in UGCR, Median (Week 6): 50.85 mg/mg | Change from baseline in adiponectin, ANCOVA LS mean (SE) (Week 6): 0.22 µg/mL | Change from baseline in adiponectin, Mean (SD) (Week 6): 0.31 µg/mL | Change from baseline in adiponectin, Median (Week 6): 0.48 µg/mL | Change from baseline in leptin, ANCOVA LS mean (SE) (Week 6): -2.82 ng/mL | Change from baseline in leptin, Mean (SD) (Week 6): -2.48 ng/mL | Change from baseline in leptin, Median (Week 6): -1.13 ng/mL | HOMA-IR, Mean (SD) (Week 6): 1.96 | HOMA-IR, Median (Week 6): 1.62 | HOMA-β, Mean (SD) (Week 6): 50.65 | HOMA-β, Median (Week 6): 40.10 | Leptin, Mean (SD) (Week 6): 8.61 ng/mL | Leptin, Median (Week 6): 5.75 ng/mL | UACR, Mean (SD) (Week 6): 32.12 g/kg | UACR, Median (Week 6): 11.30 g/kg | UGCR, Mean (SD) (Week 6): 54.67 mg/mg | UGCR, Median (Week 6): 51.06 mg/mg | Change from baseline in HOMA-IR, ANCOVA LS mean difference (Week 6): −1.81 | Change from baseline in HOMA-β, ANCOVA LS mean difference (Week 6): 3.30 | Change from baseline in UACR, ANCOVA LS mean difference (Week 6): 7.96 g/kg | Change from baseline in UGCR, ANCOVA LS mean difference (Week 6): 52.97 mg/mg | Change from baseline in adiponectin, ANCOVA LS mean difference (Week 6): 0.26 µg/mL | Change from baseline in leptin, ANCOVA LS mean difference (Week 6): -2.89 ng/mL | Adiponectin, Mean (SD) (Week 12): 8.57 µg/mL | Adiponectin, Median (Week 12): 6.59 µg/mL | Change from baseline in HOMA-IR, ANCOVA LS mean (SE) (Week 12): −1.60 | Change from baseline in HOMA-IR, Mean (SD) (Week 12): −1.50 | Change from baseline in HOMA-IR, Median (Week 12): −1.09 | Change from baseline in HOMA-β, ANCOVA LS mean (SE) (Week 12): 13.51 | Change from baseline in HOMA-β, Mean (SD) (Week 12): 12.44 | Change from baseline in HOMA-β, Median (Week 12): 7.15 | Change from baseline in UACR, ANCOVA LS mean (SE) (Week 12): -4.45 g/kg | Change from baseline in UACR, Mean (SD) (Week 12): -7.76 g/kg | Change from baseline in UACR, Median (Week 12): 0.60 g/kg | Change from baseline in UGCR, ANCOVA LS mean (SE) (Week 12): 52.58 mg/mg | Change from baseline in UGCR, Mean (SD) (Week 12): 52.43 mg/mg | Change from baseline in UGCR, Median (Week 12): 51.21 mg/mg | Change from baseline in adiponectin, ANCOVA LS mean (SE) (Week 12): 0.94 µg/mL | Change from baseline in adiponectin, Mean (SD) (Week 12): 0.78 µg/mL | Change from baseline in adiponectin, Median (Week 12): 0.65 µg/mL | Change from baseline in leptin, ANCOVA LS mean (SE) (Week 12): -2.35 ng/mL | Change from baseline in leptin, Mean (SD) (Week 12): -2.38 ng/mL | Change from baseline in leptin, Median (Week 12): -1.15 ng/mL | HOMA-IR, Mean (SD) (Week 12): 1.97 | HOMA-IR, Median (Week 12): 1.53 | HOMA-β, Mean (SD) (Week 12): 58.83 | HOMA-β, Median (Week 12): 42.30 | Leptin, Mean (SD) (Week 12): 8.78 ng/mL | Leptin, Median (Week 12): 6.26 ng/mL | UACR, Mean (SD) (Week 12): 20.43 g/kg | UACR, Median (Week 12): 11.15 g/kg | UGCR, Mean (SD) (Week 12): 53.85 mg/mg | UGCR, Median (Week 12): 51.70 mg/mg | Change from baseline in HOMA-IR, ANCOVA LS mean difference (Week 12): −1.72 | Change from baseline in HOMA-β, ANCOVA LS mean difference (Week 12): 12.09 | Change from baseline in UACR, ANCOVA LS mean difference (Week 12): -15.16 g/kg | Change from baseline in UGCR, ANCOVA LS mean difference (Week 12): 51.21 mg/mg | Change from baseline in adiponectin, ANCOVA LS mean difference (Week 12): 0.67 µg/mL | Change from baseline in leptin, ANCOVA LS mean difference (Week 12): -3.17 ng/mL | Adiponectin, Mean (SD) (Week 18): 8.62 µg/mL | Adiponectin, Median (Week 18): 6.76 µg/mL | Change from baseline in HOMA-IR, ANCOVA LS mean (SE) (Week 18): −1.55 | Change from baseline in HOMA-IR, Mean (SD) (Week 18): −1.48
